Assay results published in patent US10245261B2, “Substituted indol-5-ol derivatives and their therapeutic applications” (NantBioScience, Inc., priority 2013, dated 2019).

How the values were obtained:
Assay in all cases: KinaseProfiler kinase assay
Type in all cases: biochemical
ALK(h) = ALK(h) (Homo sapiens, UniProt Q9UM73)
In short: (§1)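 Buffer 20 mM MOPS, 1 mM EDTA, 0.01% Brij-35, 5% glycerol, 0.1% β-mercaptoethanol, 1 mg/mL BSA for compound dilution; reaction at pH 7.0 with [γ-33P]ATP, 40 min RT; filtermat/scintillation read-out; 0%/100% set by no-kinase and phosphopeptide wells.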

AMPKα2(h) = AMPKα2(h) (Homo sapiens, UniProt P54646)
In short: as §1

BTK(R28H)(h) = BTK(R28H)(h) (Homo sapiens, UniProt Q06187, R28H)
In short: as §1

CDK7/cyclinH/MAT1(h) = CDK7/cyclinH/MAT1(h) (Homo sapiens, UniProt P50613)
In short: as §1

CK1γ3(h) = CK1γ3(h) (Homo sapiens, UniProt Q9Y6M4)
In short: as §1

CK2(h) = CK2(h) (Homo sapiens, UniProt P68400)
In short: as §1

EGFR(L861Q)(h) = EGFR(L861Q)(h) (Homo sapiens, UniProt P00533, L861Q)
In short: as §1

Flt3(D835Y)(h) = Flt3(D835Y)(h) (Homo sapiens, UniProt P36888, D835Y)
In short: as §1

Fms(Y969C)(h) = Fms(Y969C)(h) (Homo sapiens, UniProt P07333, Y969C)
In short: as §1

Hck(h) = Hck(h) (Homo sapiens, UniProt P08631)
In short: as §1

IKKα(h) = IKKα(h) (Homo sapiens, UniProt O15111)
In short: as §1

IRAK4(h) = IRAK4(h) (Homo sapiens, UniProt Q9NWZ3)
In short: as §1

JNK3(h) = JNK3(h) (Homo sapiens, UniProt P53779)
In short: as §1

Lyn(h) = Lyn(h) (Homo sapiens, UniProt P07948)
In short: as §1

MELK(h) = MELK(h) (Homo sapiens, UniProt Q14680)
In short: as §1

MKK6(h) = MKK6(h) (Homo sapiens, UniProt P52564)
In short: as §1

Met(D1246N)(h) = Met(D1246N)(h) (Homo sapiens, UniProt P08581, D1228N)
In short: as §1

Met(Y1248C)(h) = Met(Y1248C)(h) (Homo sapiens, UniProt P08581, Y1230C)
In short: as §1

Met(h) = Met(h) (Homo sapiens, UniProt P08581)
In short: as §1

PASK(h) = PASK(h) (Homo sapiens, UniProt Q96RG2)
In short: as §1

[1] = molecular target: PI3 Kinase (p110β/p85β)(m) (Mus musculus, UniProt Q8BTI9)
In short: as §1

[2] = molecular target: PI3 Kinase (p113α)(H1047R)/p85α)(m) (Mus musculus, UniProt P42337, H1047R)
In short: as §1

PIP5K1α(h) = PIP5K1α(h) (Homo sapiens, UniProt Q99755)
In short: as §1

PKBγ(h) = PKBγ(h) (Homo sapiens, UniProt Q9Y243)
In short: as §1

PKCγ(h) = PKCγ(h) (Homo sapiens, UniProt P05129)
In short: as §1

PKCθ(h) = PKCθ(h) (Homo sapiens, UniProt Q04759)
In short: as §1

PKCι(h) = PKCι(h) (Homo sapiens, UniProt P41743)
In short: as §1

Rsk2(h) = Rsk2(h) (Homo sapiens, UniProt P51812)
In short: as §1

TAO3(h) = TAO3(h) (Homo sapiens, UniProt Q9H2K8)
In short: as §1

TLK2(h) = TLK2(h) (Homo sapiens, UniProt Q86UE8)
In short: as §1

c-RAF(h) = c-RAF(h) (Homo sapiens, UniProt P04049, Y340D/Y341D)
In short: as §1

Sequence of BTK(R28H)(h) (Q06187 whole entry R28H): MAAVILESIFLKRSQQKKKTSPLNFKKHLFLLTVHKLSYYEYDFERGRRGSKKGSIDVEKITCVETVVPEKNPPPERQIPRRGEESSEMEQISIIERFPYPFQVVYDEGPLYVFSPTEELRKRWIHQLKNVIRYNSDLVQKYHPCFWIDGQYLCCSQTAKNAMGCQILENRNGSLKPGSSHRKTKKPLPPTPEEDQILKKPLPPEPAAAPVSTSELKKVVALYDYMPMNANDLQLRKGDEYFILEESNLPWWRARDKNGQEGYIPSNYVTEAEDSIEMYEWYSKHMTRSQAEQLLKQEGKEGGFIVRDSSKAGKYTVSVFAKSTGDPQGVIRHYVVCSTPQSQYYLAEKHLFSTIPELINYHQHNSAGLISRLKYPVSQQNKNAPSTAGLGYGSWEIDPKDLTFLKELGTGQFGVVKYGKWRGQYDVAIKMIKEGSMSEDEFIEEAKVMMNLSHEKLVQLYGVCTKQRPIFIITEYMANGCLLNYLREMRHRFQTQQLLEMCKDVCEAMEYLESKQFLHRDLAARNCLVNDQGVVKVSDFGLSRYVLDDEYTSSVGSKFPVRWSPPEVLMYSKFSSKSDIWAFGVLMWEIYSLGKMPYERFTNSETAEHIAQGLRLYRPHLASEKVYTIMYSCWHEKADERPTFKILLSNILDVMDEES
Sequence of IKKα(h) (O15111 whole entry): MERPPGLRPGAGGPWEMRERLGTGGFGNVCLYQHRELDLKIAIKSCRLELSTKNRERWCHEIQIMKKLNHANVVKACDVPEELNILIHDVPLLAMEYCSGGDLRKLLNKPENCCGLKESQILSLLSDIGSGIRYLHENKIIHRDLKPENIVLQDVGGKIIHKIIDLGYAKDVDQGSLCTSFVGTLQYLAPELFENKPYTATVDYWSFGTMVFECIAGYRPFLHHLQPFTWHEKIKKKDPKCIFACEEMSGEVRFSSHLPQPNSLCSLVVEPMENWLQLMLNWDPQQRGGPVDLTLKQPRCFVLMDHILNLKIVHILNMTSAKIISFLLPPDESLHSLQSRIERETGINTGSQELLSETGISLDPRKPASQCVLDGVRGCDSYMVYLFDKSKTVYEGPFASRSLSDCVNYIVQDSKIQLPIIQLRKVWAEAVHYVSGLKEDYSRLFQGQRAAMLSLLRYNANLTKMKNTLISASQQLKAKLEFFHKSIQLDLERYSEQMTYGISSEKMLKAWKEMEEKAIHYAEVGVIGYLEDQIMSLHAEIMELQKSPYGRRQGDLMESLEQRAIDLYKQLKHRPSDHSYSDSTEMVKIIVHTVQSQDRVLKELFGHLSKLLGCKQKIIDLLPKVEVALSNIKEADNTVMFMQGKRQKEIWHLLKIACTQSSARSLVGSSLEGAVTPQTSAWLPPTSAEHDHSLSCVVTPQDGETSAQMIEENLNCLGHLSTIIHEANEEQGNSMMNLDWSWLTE
Sequence of Fms(Y969C)(h) (P07333 20-972 Y969C): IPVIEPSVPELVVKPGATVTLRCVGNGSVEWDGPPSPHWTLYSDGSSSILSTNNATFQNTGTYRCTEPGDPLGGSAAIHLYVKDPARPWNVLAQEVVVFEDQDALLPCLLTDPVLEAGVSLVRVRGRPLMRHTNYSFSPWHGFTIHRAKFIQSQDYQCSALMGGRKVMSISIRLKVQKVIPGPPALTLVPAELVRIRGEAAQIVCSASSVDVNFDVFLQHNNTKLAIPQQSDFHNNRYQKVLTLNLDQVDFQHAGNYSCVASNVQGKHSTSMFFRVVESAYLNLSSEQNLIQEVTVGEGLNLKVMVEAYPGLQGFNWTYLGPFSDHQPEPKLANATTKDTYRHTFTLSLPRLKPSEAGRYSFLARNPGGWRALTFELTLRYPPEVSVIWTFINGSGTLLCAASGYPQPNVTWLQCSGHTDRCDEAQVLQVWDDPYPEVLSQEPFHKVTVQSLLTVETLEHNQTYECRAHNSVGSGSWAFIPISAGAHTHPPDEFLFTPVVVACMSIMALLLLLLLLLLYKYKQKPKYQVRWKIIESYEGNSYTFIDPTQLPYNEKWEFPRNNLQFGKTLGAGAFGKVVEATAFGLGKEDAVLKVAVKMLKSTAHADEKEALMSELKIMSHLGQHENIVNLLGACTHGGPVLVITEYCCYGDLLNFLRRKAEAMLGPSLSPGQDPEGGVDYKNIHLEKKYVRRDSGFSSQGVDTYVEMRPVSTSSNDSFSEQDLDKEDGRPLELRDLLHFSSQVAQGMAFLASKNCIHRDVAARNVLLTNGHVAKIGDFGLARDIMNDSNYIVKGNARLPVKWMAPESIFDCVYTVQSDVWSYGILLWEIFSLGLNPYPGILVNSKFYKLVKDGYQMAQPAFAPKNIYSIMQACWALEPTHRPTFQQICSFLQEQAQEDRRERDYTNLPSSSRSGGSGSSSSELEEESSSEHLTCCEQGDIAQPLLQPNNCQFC
Sequence of PKCθ(h) (Q04759 whole entry): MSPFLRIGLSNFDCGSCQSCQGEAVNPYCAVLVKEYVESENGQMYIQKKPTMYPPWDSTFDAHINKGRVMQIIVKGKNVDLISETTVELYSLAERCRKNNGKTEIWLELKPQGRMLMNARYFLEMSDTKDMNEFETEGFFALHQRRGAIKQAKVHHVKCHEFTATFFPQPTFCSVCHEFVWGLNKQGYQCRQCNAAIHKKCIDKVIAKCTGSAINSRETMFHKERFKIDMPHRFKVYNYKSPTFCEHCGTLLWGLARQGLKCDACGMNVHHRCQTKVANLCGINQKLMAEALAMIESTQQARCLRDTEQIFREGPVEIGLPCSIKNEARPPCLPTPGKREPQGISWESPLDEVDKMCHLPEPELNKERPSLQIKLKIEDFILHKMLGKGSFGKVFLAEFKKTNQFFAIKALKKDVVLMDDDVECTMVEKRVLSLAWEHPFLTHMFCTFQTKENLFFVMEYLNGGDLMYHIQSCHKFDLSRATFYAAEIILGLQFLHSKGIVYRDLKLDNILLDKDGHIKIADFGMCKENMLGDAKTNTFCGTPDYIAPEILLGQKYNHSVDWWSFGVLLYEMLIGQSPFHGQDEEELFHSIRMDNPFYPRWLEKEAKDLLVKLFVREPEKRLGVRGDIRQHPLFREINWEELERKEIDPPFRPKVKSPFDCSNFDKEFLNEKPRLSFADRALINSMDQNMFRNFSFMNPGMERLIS
Sequence of MELK(h) (Q14680 whole entry): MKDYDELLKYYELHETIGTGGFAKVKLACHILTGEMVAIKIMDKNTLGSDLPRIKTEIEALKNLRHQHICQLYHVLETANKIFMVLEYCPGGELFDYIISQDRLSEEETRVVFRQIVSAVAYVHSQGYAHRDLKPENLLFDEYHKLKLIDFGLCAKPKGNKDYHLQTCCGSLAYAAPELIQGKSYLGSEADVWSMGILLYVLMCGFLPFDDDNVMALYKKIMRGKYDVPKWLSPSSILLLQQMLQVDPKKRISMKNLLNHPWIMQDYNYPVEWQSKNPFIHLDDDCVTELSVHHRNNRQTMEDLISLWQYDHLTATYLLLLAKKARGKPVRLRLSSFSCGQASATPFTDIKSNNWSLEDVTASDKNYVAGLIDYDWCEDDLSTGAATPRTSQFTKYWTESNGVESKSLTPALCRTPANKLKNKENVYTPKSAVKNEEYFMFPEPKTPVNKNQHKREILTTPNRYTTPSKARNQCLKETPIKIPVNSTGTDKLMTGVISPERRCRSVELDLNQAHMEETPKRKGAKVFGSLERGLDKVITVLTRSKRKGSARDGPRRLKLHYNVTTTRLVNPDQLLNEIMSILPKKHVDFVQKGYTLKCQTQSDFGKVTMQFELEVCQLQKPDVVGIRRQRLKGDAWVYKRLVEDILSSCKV
Sequence of Met(h) (P08581 25-1390): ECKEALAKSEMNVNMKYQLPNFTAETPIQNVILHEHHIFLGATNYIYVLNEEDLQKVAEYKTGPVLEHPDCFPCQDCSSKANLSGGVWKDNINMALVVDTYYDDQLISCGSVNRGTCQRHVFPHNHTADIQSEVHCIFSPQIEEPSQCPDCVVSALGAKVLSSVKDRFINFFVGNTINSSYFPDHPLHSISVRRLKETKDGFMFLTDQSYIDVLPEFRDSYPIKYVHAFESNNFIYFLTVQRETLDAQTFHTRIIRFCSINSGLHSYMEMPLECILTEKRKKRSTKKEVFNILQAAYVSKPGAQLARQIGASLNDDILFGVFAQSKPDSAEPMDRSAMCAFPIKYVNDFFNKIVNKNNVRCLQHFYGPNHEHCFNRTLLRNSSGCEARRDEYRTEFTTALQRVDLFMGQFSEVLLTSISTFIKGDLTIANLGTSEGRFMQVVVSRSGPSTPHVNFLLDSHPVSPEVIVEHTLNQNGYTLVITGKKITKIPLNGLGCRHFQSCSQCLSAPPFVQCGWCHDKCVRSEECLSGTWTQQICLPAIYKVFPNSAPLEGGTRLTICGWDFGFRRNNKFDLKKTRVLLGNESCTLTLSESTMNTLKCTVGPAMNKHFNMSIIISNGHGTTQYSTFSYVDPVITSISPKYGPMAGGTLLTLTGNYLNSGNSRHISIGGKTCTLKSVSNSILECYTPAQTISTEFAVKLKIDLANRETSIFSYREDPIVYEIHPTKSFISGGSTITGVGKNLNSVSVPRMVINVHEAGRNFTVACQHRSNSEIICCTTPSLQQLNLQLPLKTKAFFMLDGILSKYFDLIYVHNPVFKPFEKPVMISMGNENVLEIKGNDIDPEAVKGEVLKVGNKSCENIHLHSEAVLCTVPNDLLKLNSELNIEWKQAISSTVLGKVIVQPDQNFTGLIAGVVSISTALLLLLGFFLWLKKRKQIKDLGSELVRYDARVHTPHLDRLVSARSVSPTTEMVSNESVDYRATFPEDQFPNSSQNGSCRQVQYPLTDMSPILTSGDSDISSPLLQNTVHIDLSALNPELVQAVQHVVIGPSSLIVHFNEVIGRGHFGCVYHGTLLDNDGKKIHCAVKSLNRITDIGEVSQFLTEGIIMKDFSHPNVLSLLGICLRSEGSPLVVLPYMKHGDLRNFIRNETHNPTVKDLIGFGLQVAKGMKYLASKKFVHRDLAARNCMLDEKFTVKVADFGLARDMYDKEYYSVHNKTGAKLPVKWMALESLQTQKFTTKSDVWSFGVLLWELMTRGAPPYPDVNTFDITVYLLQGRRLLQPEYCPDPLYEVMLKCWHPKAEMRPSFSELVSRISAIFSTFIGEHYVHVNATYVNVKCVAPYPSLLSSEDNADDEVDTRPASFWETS

Row | SMILES | inhibition at 0.1 µM (ALK(h)) | inhibition at 0.1 µM (AMPKα2(h)) | inhibition at 0.1 µM (BTK(R28H)(h)) | inhibition at 0.1 µM (CDK7/cyclinH/MAT1(h)) | inhibition at 0.1 µM (CK1γ3(h)) | inhibition at 0.1 µM (CK2(h)) | inhibition at 0.1 µM (EGFR(L861Q)(h)) | inhibition at 0.1 µM (Flt3(D835Y)(h)) | inhibition at 0.1 µM (Fms(Y969C)(h)) | inhibition at 0.1 µM (Hck(h)) | inhibition at 0.1 µM (IKKα(h)) | inhibition at 0.1 µM (IRAK4(h)) | inhibition at 0.1 µM (JNK3(h)) | inhibition at 0.1 µM (Lyn(h)) | inhibition at 0.1 µM (MELK(h)) | inhibition at 0.1 µM (MKK6(h)) | inhibition at 0.1 µM (Met(D1246N)(h)) | inhibition at 0.1 µM (Met(Y1248C)(h)) | inhibition at 0.1 µM (Met(h)) | inhibition at 0.1 µM (PASK(h)) | also measured
1 | Cc1cc2c(F)c(Oc3nc(Nc4cc(C5CC5)[nH]n4)cc(N4CCN(C)CC4)n3)ccc2[nH]1 [Compound 10] | 87% | 90% | 10% | 44% | -12% | 8% | 2% | 99% | 67% | 68% | -12% | 37% | -1% | 100% | 69% | -5% | 80% | 57% | 54% | 22% | inhibition at 0.1 µM [1]: -1%; inhibition at 0.1 µM [2]: -1%; inhibition at 0.1 µM (PIP5K1α(h)): -2%; inhibition at 0.1 µM (PKBγ(h)): -10%; inhibition at 0.1 µM (PKCγ(h)): -8%; inhibition at 0.1 µM (PKCθ(h)): 21%; inhibition at 0.1 µM (PKCι(h)): 0%; inhibition at 0.1 µM (Rsk2(h)): 37%; inhibition at 0.1 µM (TAO3(h)): 20%; inhibition at 0.1 µM (TLK2(h)): 69%; inhibition at 0.1 µM (c-RAF(h)): 6%
2 | Cc1cc2c(F)c(Oc3nc(Nc4cc(C5CC5)[nH]n4)cc(N4CCNCC4)n3)ccc2[nH]1 [Compound 11, N-(5-cyclopropyl-1H-pyrazol-3-yl)-2-((4-fluoro-2-methyl-1H-indol-5-yl)oxy)-6-(piperazin-1-yl)pyrimidin-4-amine] | 86% | 88% | -7% | 26% | -9% | 5% | 34% | 101% | 73% | 85% | -3% | 13% | -6% | 99% | 87% | -13% | 84% | 95% | 47% | -17% | inhibition at 0.1 µM [1]: -1%; inhibition at 0.1 µM [2]: 0%; inhibition at 0.1 µM (PIP5K1α(h)): -3%; inhibition at 0.1 µM (PKBγ(h)): -18%; inhibition at 0.1 µM (PKCγ(h)): -5%; inhibition at 0.1 µM (PKCθ(h)): -16%; inhibition at 0.1 µM (PKCι(h)): -10%; inhibition at 0.1 µM (Rsk2(h)): 7%; inhibition at 0.1 µM (TAO3(h)): 8%; inhibition at 0.1 µM (TLK2(h)): 70%; inhibition at 0.1 µM (c-RAF(h)): 1%
